Converted amounts (≈) assume the structure as drawn. Read-outs that look alike come from different tables or passages of the source.
Experiments:
P. cepacia 23 = experiment: MIC, agar plate dilution method; assay type: cell-based, Pseudomonas cepacia
Method in brief: (§1)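 Testing used Sensitivity Disk Agar plates containing graded compound levels and inoculated at 10^6 CFU/ml. Reference drugs cefotaxime and ceftazidime were tested in parallel, and results are given as MIC (μg/ml).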

P. aeruginosa AKR17 = experiment: MIC, agar plate dilution method; assay type: cell-based, Pseudomonas aeruginosa; conditions: for MIC: Pseudomonas aeruginosa
Method in brief: as §1

P. aeruginosa AK109 = experiment: MIC, agar plate dilution method; assay type: cell-based, Pseudomonas aeruginosa; conditions: for MIC: Pseudomonas aeruginosa
Method in brief: as §1

Gram-negative bacteria = conditions: background of the art; cited from earlier work
P. aeruginosa D15 = experiment: treatment of experimental infection of mice; assay type: in vivo; conditions: for ED50: Pseudomonas aeruginosa
S. aureus Smith = experiment: treatment of experimental infection of mice; assay type: in vivo; conditions: for ED50: Staphylococcus aureus
E. coli Juhl = experiment: treatment of experimental infection of mice; assay type: in vivo; conditions: for ED50: Escherichia coli
E. cloaceae Nek 39 = experiment: MIC, agar plate dilution method; assay type: cell-based; conditions: read-out: Minimum Inhibitory Concentration
Method in brief: as §1

S. marcescens No. 16-2 = experiment: MIC, agar plate dilution method; assay type: cell-based; conditions: Serratia marcescens
Method in brief: as §1

E. coli C/Rms149 = experiment: MIC, agar plate dilution method; assay type: cell-based; conditions: for MIC: Escherichia coli, read-out: Minimum Inhibitory Concentration
Method in brief: as §1

E. coli W3630/Rms213 = experiment: MIC, agar plate dilution method; assay type: cell-based; conditions: for MIC: Escherichia coli, W3630/RMS213, read-out: Minimum Inhibitory Concentration
Method in brief: as §1

C. freundii No. 7 = experiment: MIC, agar plate dilution method; assay type: cell-based; conditions: Citrobacter freundii
Method in brief: as §1

S. aureus NIHJJC-1 = experiment: MIC, agar plate dilution method; assay type: cell-based; conditions: Staphylococcus aureus
Method in brief: as §1

A. calcoaceticus No. 14 = experiment: MIC, agar plate dilution method; assay type: cell-based; conditions: Acinetobacter calcoaceticus
Method in brief: as §1

P. vulgaris OB1043 = experiment: MIC, agar plate dilution method; assay type: cell-based; conditions: Proteus vulgaris
Method in brief: as §1

E. coli ML1410/Rte16 = experiment: MIC, agar plate dilution method; assay type: cell-based; conditions: for MIC: Escherichia coli, ML1410/RTE16, read-out: Minimum Inhibitory Concentration
Method in brief: as §1

S. aureus JS-1 = experiment: MIC, agar plate dilution method; assay type: cell-based; conditions: Staphylococcus aureus
Method in brief: as §1

E. coli NIHJJC-2 = experiment: MIC, agar plate dilution method; assay type: cell-based; conditions: for MIC: Escherichia coli
Method in brief: as §1

P. mirabilis JY10 = experiment: MIC, agar plate dilution method; assay type: cell-based; conditions: Proteus mirabilis
Method in brief: as §1

K. pneumoniae No. 42 = experiment: MIC, agar plate dilution method; assay type: cell-based; conditions: Klebsiella pneumoniae
Method in brief: as §1

E. coli CSH = experiment: MIC, agar plate dilution method; assay type: cell-based; conditions: for MIC: Escherichia coli, read-out: Minimum Inhibitory Concentration
Method in brief: as §1

E. coli CSH2 = experiment: MIC, agar plate dilution method; assay type: cell-based; conditions: 10^6 CFU/ml, Sensitivity Disk Agar; for MIC: Escherichia coli, read-out: Minimum Inhibitory Concentration
Method in brief: as §1

E. coli W3630/Rms212 = experiment: MIC, agar plate dilution method; assay type: cell-based; conditions: for MIC: Escherichia coli, W3630/RMS212, read-out: Minimum Inhibitory Concentration
Method in brief: as §1

P. vulgaris No. 33 = experiment: MIC, agar plate dilution method; assay type: cell-based; conditions: Proteus vulgaris
Method in brief: as §1

P. maltophilia IID 1275 = experiment: MIC, agar plate dilution method; assay type: cell-based, Pseudomonas maltophilia; conditions: Stenotrophomonas maltophilia
Method in brief: as §1

[1] = tested on: Gram-positive bacteria and Gram-negative bacteria; experiment: antibacterial activity, general statement; assay type: cell-based; conditions: sensitive and resistant bacteria
Method in brief: as §1

## CC(C)(O/N=C(\C(=O)N[C@@H]1C(=O)N2C(C(=O)[O-])=C(C[n+]3ccccc3)CS[C@H]12)c1csc(N)n1)C(=O)O [Ceftazidime, reference compound]
P. cepacia 23; Burkholderia cepacia, 23, read-out: Minimum Inhibitory Concentration
  MIC: 0.39 µg/mL (≈ 0.714 µM)
P. aeruginosa AKR17; AKR17, read-out: Minimum Inhibitory Concentration
  MIC: > 25 µg/mL
P. aeruginosa AK109; AK109, read-out: Minimum Inhibitory Concentration
  MIC: 0.39 µg/mL (≈ 0.714 µM)
Gram-negative bacteria
  antibacterial activity (in words): the most excellent cephalosporin derivative against Gram-negative bacteria
P. aeruginosa D15; D15
  ED50: 38 mg/kg
S. aureus Smith
  ED50: 11 mg/kg
E. coli Juhl
  ED50: 0.33 mg/kg
E. cloaceae Nek 39
  MIC: 0.78 µg/mL (≈ 1.43 µM)
S. marcescens No. 16-2; NO.162, read-out: Minimum Inhibitory Concentration
  MIC: 1.56 µg/mL (≈ 2.85 µM)
E. coli C/Rms149; E. coli C/Rms149, 10^6 CFU/ml, Sensitivity Disk Agar
  Minimum Inhibitory Concentration: 0.20 µg/mL
E. coli C/Rms149
  MIC: 0.2 µg/mL (≈ 0.366 µM)
E. coli W3630/Rms213; E. coli W3630/Rms213, 10^6 CFU/ml, Sensitivity Disk Agar
  Minimum Inhibitory Concentration: 0.20 µg/mL
E. coli W3630/Rms213
  MIC: 0.2 µg/mL (≈ 0.366 µM)
C. freundii No. 7; NO.7, read-out: Minimum Inhibitory Concentration
  MIC: 1.56 µg/mL (≈ 2.85 µM)
S. aureus NIHJJC-1; NIHJJC1, read-out: Minimum Inhibitory Concentration
  MIC: 3.12 µg/mL (≈ 5.71 µM)
A. calcoaceticus No. 14; NO.14, read-out: Minimum Inhibitory Concentration
  MIC: 6.25 µg/mL (≈ 11.4 µM)
P. vulgaris OB1043; OB1043, read-out: Minimum Inhibitory Concentration
  MIC: ≤ 0.05 µg/mL
E. coli ML1410/Rte16; E. coli ML1410/Rte16, 10^6 CFU/ml, Sensitivity Disk Agar
  Minimum Inhibitory Concentration: 0.20 µg/mL
E. coli ML1410/Rte16
  MIC: 0.2 µg/mL (≈ 0.366 µM)
S. aureus JS-1; JS1, read-out: Minimum Inhibitory Concentration
  MIC: > 25 µg/mL
E. coli NIHJJC-2; E. coli NIHJJC-2, 10^6 CFU/ml, Sensitivity Disk Agar
  Minimum Inhibitory Concentration: 0.1 µg/mL
E. coli NIHJJC-2; NIHJJC2, read-out: Minimum Inhibitory Concentration
  MIC: 0.1 µg/mL (≈ 0.183 µM)
P. mirabilis JY10; JY10, read-out: Minimum Inhibitory Concentration
  MIC: ≤ 0.05 µg/mL
K. pneumoniae No. 42; NO.42, read-out: Minimum Inhibitory Concentration
  MIC: 0.39 µg/mL (≈ 0.714 µM)
E. coli CSH; E. coli CSH, 10^6 CFU/ml, Sensitivity Disk Agar
  Minimum Inhibitory Concentration: 0.10 µg/mL
E. coli CSH
  MIC: 0.1 µg/mL (≈ 0.183 µM)
E. coli CSH2
  Minimum Inhibitory Concentration: 0.1 µg/mL
  MIC: 0.1 µg/mL (≈ 0.183 µM)
E. coli W3630/Rms212; E. coli W3630/Rms212, 10^6 CFU/ml, Sensitivity Disk Agar
  Minimum Inhibitory Concentration: 0.20 µg/mL
E. coli W3630/Rms212
  MIC: 0.2 µg/mL (≈ 0.366 µM)
P. vulgaris No. 33; NO.33, read-out: Minimum Inhibitory Concentration
  MIC: ≤ 0.05 µg/mL
P. maltophilia IID 1275; IID1275, read-out: Minimum Inhibitory Concentration
  MIC: > 25 µg/mL

## CON=C(C(=O)NC1C(=O)N2C(C(=O)[O-])=C(C[N+]3(C)Cc4cc(O)c(O)cc4C3)CSC12)c1csc(N)n1 (stereo not shown) [Ex. 4-D, 7-[(Z)-2-(2-aminothiazol-4-yl)-2-methoxyiminoacetamido]-3-(5,6-dihydroxy-2-methyl-2-isoindolinium)methyl-3-cephem-4-carboxylate]
P. cepacia 23; Burkholderia cepacia, P. cepacia 23, 10^6 CFU/ml, Sensitivity Disk Agar, read-out: Minimum Inhibitory Concentration
  MIC: 0.2 µg/mL (≈ 0.357 µM)
P. cepacia 23; Pseudomonas cepacia 23
  antibacterial activity relative to the compound of Reference Example: at least 32 times
P. aeruginosa AKR17; Pseudomonas aeruginosa AKR-17, resistant to all cephalosporins including Ceftazidime
  antibacterial activity relative to the compound of Reference Example: at least 32 times
P. aeruginosa AKR17; P. aeruginosa AKR17, 10^6 CFU/ml, Sensitivity Disk Agar, read-out: Minimum Inhibitory Concentration
  MIC: 0.78 µg/mL (≈ 1.39 µM)
P. aeruginosa AK109; Pseudomonas aeruginosa AK109
  antibacterial activity relative to the compound of Reference Example: at least 16 times
P. aeruginosa AK109; P. aeruginosa AK109, 10^6 CFU/ml, Sensitivity Disk Agar, read-out: Minimum Inhibitory Concentration
  MIC: 0.1 µg/mL (≈ 0.178 µM)
[1]
  antibacterial activity (in words): particularly strong antibacterial activities
P. aeruginosa D15; mice infected with P. aeruginosa D15, read-out: ED50
  ED50: 14 mg/kg
P. aeruginosa D15; experimental infections of mice caused by P. aeruginosa D15
  efficacy relative to Ceftazidime: about twice as high
S. aureus Smith; mice infected with S. aureus Smith, read-out: ED50
  ED50: 6.2 mg/kg
S. aureus Smith; experimental infections of mice caused by S. aureus Smith
  efficacy relative to Ceftazidime: about twice as high
E. coli Juhl; mice infected with E. coli Juhl, read-out: ED50
  ED50: 0.12 mg/kg
E. coli Juhl; experimental infections of mice caused by E. coli Juhl
  efficacy relative to Ceftazidime: about twice as high
E. cloaceae Nek 39; E. cloaceae Nek 39, 10^6 CFU/ml, Sensitivity Disk Agar
  MIC: ≤ 0.05 µg/mL
S. marcescens No. 16-2; NO.162, S. marcescens No. 16-2, 10^6 CFU/ml, Sensitivity Disk Agar, read-out: Minimum Inhibitory Concentration
  MIC: 6.25 µg/mL (≈ 11.1 µM)
E. coli C/Rms149
  MIC: 0.1 µg/mL (≈ 0.178 µM)
E. coli W3630/Rms213
  MIC: 0.78 µg/mL (≈ 1.39 µM)
C. freundii No. 7; C. freundii No. 7, 10^6 CFU/ml, Sensitivity Disk Agar, read-out: Minimum Inhibitory Concentration
  MIC: 6.25 µg/mL (≈ 11.1 µM)
S. aureus NIHJJC-1; NIHJJC1, S. aureus NIHJJC-1, 10^6 CFU/ml, Sensitivity Disk Agar, read-out: Minimum Inhibitory Concentration
  MIC: 6.25 µg/mL (≈ 11.1 µM)
A. calcoaceticus No. 14
  antibacterial activity relative to the compound of Reference Example: at least 32 times
A. calcoaceticus No. 14; A. calcoaceticus No. 14, 10^6 CFU/ml, Sensitivity Disk Agar, read-out: Minimum Inhibitory Concentration
  MIC: 0.2 µg/mL (≈ 0.357 µM)
P. vulgaris OB1043; P. vulgaris OB1043, 10^6 CFU/ml, Sensitivity Disk Agar, read-out: Minimum Inhibitory Concentration
  MIC: 3.12 µg/mL (≈ 5.57 µM)
E. coli ML1410/Rte16
  MIC: 0.1 µg/mL (≈ 0.178 µM)
S. aureus JS-1; JS1, S. aureus JS-1, 10^6 CFU/ml, Sensitivity Disk Agar, read-out: Minimum Inhibitory Concentration
  MIC: 25 µg/mL (≈ 44.6 µM)
E. coli NIHJJC-2; NIHJJC2, E. coli NIHJJC-2, 10^6 CFU/ml, Sensitivity Disk Agar, read-out: Minimum Inhibitory Concentration
  MIC: ≤ 0.05 µg/mL
P. mirabilis JY10; P. mirabilis JY10, 10^6 CFU/ml, Sensitivity Disk Agar, read-out: Minimum Inhibitory Concentration
  MIC: 0.39 µg/mL (≈ 0.696 µM)
K. pneumoniae No. 42; K. pneumoniae No. 42, 10^6 CFU/ml, Sensitivity Disk Agar, read-out: Minimum Inhibitory Concentration
  MIC: 0.2 µg/mL (≈ 0.357 µM)
E. coli CSH
  MIC: 1.56 µg/mL (≈ 2.78 µM)
E. coli CSH2
  MIC: 0.2 µg/mL (≈ 0.357 µM)
E. coli W3630/Rms212
  MIC: ≤ 0.05 µg/mL
P. vulgaris No. 33; P. vulgaris No. 33, 10^6 CFU/ml, Sensitivity Disk Agar, read-out: Minimum Inhibitory Concentration
  MIC: 0.78 µg/mL (≈ 1.39 µM)
P. maltophilia IID 1275; IID1275, P. maltophilia IID 1275, 10^6 CFU/ml, Sensitivity Disk Agar, read-out: Minimum Inhibitory Concentration
  MIC: 25 µg/mL (≈ 44.6 µM)

Reference: patent US4677100A, “Cephalosporin derivatives” (Banyu Pharmaceutical Co., Ltd., priority 1984, dated 1987)
